Where two headings read alike, the source gives them in different places.
Experiments:
[1] = system: hERG; settings: cited from earlier work
[2] = biological target: KV7.1/KCNE1 (Homo sapiens, UniProt P51787); test: Automated patch-clamp (APC, population patch), CHO cells stably expressing human KV7.1/KCNE1; type: cell-based; settings: for KV7.1/KCNE1 channel Efficacy (max reduction in Gmax) Gmin, marked *: * Greatest efficacy achieved with a concentration between 10 and 30 µM (no fit); for KV7.1/KCNE1 channel Efficacy (max reduction in Gmax) Gmin: 1 = no reduction of Gmax, 0 = complete reduction
Sequence of KV7.1/KCNE1 (P51787 whole entry): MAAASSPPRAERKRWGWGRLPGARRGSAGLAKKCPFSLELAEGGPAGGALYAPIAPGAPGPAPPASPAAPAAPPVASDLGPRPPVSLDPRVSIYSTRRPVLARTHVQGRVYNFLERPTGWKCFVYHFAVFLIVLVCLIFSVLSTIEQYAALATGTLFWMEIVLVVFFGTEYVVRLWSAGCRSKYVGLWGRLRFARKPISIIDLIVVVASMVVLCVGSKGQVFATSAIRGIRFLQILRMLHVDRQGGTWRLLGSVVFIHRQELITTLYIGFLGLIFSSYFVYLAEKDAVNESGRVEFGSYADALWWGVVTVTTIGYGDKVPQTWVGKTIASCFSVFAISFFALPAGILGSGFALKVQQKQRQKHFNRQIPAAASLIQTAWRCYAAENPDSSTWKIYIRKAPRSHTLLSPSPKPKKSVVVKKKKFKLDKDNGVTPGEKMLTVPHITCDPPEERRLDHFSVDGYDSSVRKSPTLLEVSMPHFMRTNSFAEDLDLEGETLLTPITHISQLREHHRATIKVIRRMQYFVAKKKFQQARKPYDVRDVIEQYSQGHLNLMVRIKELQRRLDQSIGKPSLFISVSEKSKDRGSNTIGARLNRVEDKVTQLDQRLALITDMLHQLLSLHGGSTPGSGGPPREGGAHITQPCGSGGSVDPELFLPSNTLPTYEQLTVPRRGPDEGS
Method: Both hERG and KV7.1/KCNE1 contribute to cardiomyocyte repolarization (Fig. 1g). Inhibition of KV7.1/KCNE1 alone can be proarrhythmic. Moreover, under conditions with impaired hERG function, upregulation of KV7.1/KCNE1 has been proposed to partially compensate for the loss of hERG [38, 39]. […] To assess if SCRAs also affect KV7.1/KCNE1, we used mammalian CHO cells stably expressing human KV7.1/KCNE1. […] At 10 µM, 7 of the SCRAs caused a significant positive shift in V50 (Fig. 5e), with the largest shift induced by MDMB-[…] (ΔV50 = +10.3 ± 1.6 mV).
Automated patch-clamp recordings were performed at 22 °C.
For the KV7.1/KCNE1 voltage ladder protocol (SI Table VII) the solutions were present for 60 s before recording started. KV7.1/KCNE1 cells were kept at a holding voltage of −90 mV, with brief hyperpolarizing steps to −100 mV for 540 ms (to calculate ohmic leakage). […] The time between compound application and the first voltage protocol was 60 s. Time between sweeps was 15 s. The voltage ladder protocol was executed every 220 s.
For Gmax (rel.), N was set to –1. For ΔV50, N was set to 1.

[3] = biological target: hERG (KV11.1) (Homo sapiens, UniProt Q12809); test: Automated planar patch-clamp (APC, QPatch II 48), voltage-ladder protocol, CHO cells stably expressing human hERG; settings: for hERG channel Efficacy (max reduction in Gmax) Gmin, marked *: * Greatest efficacy achieved with a concentration between 10 and 30 µM (no fit); for hERG channel Efficacy (max reduction in Gmax) Gmin, marked * / hERG channel Efficacy (max reduction in Gmax) Gmin: 1 = no reduction of Gmax; for effect on Gmax of hERG (in words): APC concentration-response, 1.11 to 30 µM; for hERG channel Efficacy (max reduction in Gmax) Gmin: 0 = complete reduction
Sequence of hERG (KV11.1) (Q12809 whole entry): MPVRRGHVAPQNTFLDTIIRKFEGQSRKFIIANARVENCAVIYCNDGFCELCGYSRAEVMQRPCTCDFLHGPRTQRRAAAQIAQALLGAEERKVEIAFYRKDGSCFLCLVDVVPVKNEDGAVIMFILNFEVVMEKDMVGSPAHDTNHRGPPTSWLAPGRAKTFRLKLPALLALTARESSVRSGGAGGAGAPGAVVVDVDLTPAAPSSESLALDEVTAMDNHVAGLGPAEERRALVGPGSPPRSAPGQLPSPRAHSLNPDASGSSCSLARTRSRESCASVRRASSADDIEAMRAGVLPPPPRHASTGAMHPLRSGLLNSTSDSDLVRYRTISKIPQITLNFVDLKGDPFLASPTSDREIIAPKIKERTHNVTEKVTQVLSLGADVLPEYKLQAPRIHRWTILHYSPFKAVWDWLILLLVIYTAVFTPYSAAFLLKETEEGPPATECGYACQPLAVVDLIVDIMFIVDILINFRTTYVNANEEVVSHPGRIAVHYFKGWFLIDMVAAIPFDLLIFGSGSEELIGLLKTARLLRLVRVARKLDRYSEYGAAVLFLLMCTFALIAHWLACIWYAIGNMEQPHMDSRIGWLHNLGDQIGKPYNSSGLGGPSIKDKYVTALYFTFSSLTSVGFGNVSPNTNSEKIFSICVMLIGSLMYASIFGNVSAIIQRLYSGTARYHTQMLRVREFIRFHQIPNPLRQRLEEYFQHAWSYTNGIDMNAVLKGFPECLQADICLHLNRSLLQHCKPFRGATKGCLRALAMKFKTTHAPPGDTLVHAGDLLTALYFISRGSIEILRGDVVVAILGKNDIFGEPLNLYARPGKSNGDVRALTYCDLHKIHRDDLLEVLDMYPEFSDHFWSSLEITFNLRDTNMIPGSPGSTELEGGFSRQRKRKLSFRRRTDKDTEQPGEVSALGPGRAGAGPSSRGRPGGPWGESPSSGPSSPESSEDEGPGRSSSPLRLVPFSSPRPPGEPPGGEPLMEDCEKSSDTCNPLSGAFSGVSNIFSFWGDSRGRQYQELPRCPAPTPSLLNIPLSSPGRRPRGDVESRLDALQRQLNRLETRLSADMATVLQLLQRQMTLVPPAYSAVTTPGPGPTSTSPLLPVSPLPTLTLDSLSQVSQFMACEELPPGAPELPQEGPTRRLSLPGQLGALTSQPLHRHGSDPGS
Excerpt: To assess the effect of a large set of SCRAs on hERG (see SI Table I and SI Fig. S1 for a list of the 36 included SCRAs and corresponding structures), we used the automated planar patch-clamp (APC) technique on mammalian Chinese hamster ovary (CHO) cells stably expressing human hERG. […] We employed a voltage-ladder protocol to obtain information on SCRA effects on the channel’s voltage dependence of activation (V50) and maximal conductance (Gmax) (both determined from Boltzmann fits of the instantaneous tail currents; see Methods for details).
Stably expressing cell lines “CHO-hERG DUO” (here referred to as hERG; gene: KCNH2) and “CHO-KVLQT1/mink” (here referred to as KV7.1/KCNE1; gene: KCNQ1/KCNE1), (B’SYS GmBH, Witterswil, Switzerland) were used to study whole-cell K^+ currents on a QPatch II 48 APC system (Sophion Bioscience A/S, Ballerup, Denmark). Cell culture and passaging were performed in accordance with standard operating procedures. Cells were harvested in serum-free medium with Detachin^TM (Genlantis, CA, USA) immediately prior to experiments. For MPC on transient cell lines, CHO-K1 CCL-61 cells (ATCC, Manassas, VA, USA) were cultured in Ham’s F-12 medium supplemented with 10% fetal bovine serum (FBS) and 100 U/mL penicillin–100 µg/mL streptomycin (Gibco, Thermo Fisher Scientific, Waltham, MA, USA). Transfection was carried out using JetOPTIMUS® reagent (Polyplus, Strasbourg, France) according to the manufacturer’s protocol. Briefly, 80,000 cells were seeded per well in a 12-well plate and transfected with 300 ng of pcDNA3-GFP plasmid, 700 ng of pcDNA3-hERG plasmid with either the wild-type or mutant channels (S624A, S649A, or Y652A), and […] of JetOPTIMUS. After 8 h, cells were detached and reseeded at a density of 30,000 cells per well onto several poly-D-lysine-coated glass coverslips placed in a 12-well plate. For the CB1 receptor activity assay, the AequoScreen® recombinant Chinese hamster ovary (CHO) K1 cell line, stably expressing the human CB1 receptor (ES-110-A), was used (Revvity, Sollentuna, Sweden).
Automated patch-clamp recordings were performed at 22 °C. Freshly harvested cell suspensions (2–3 million cells/mL) were prepared for experiments by the QPatch II 48 automated cell preparation unit. Cells were centrifuged for 150 s at 150 × g and washed twice with the extracellular recording solution. Cells were handled by the integrated pipetting robot and added to the 48 experiment sites on the planar patch-clamp consumable QPlate. Each experiment site contained an individual pair of recording electrodes and a silicon/glass biochip embedded in the flow channels. Single-cell patch recordings (n = 1 is defined as one single-cell patch) and population patch recordings (up to 10 cells per well, n = 1 is defined as one population patch) were performed for hERG and for KV7.1/KCNE1, respectively. Cells were applied, positioned and sealed to the patch holes by a mild suction protocol; whole-cell access was then achieved by a stronger suction pulse.
The intracellular solution contained (in mM): 100 KCl, 4.3 CaCl2, 1.4 MgCl2, 25/10 KOH/EGTA, 24 KF, 10 HEPES, and 4 Mg-ATP (hERG) or 4 Na-ATP (KV7.1/KCNE1). […] The compounds were pre-diluted in DMSO, and the final concentration of DMSO (0.3%) was equal in all recording solutions to control for vehicle effects. The compounds made no contact with plastics following dilution in extracellular solution.
An overview of experimental conditions is provided in SI Table VII, Square voltage pulses in a voltage ladder protocol were used to study current/voltage (I(V)) relationships. Each voltage protocol was first run three times in the presence of vehicle (extracellular solution supplemented with 0.3% DMSO), the 3rd serving as the baseline. Voltage protocols were repeated in the presence of 4 cumulatively rising concentrations of test compound, followed by application of vehicle for recovery.

[4] = biological target: T1, human CB1 receptor (Homo sapiens, UniProt P21554); test: AequoScreen intracellular calcium release assay, CHO-K1 cells stably expressing CB1; type: cell-based; settings: for CB1 receptor Efficacy Emax: normalized to maximum of JWH-018
T1 construct: host or cells: CHO-K1 stably expressing CB1, apoaequorin and Gα16
T1 sequence (P21554 whole entry): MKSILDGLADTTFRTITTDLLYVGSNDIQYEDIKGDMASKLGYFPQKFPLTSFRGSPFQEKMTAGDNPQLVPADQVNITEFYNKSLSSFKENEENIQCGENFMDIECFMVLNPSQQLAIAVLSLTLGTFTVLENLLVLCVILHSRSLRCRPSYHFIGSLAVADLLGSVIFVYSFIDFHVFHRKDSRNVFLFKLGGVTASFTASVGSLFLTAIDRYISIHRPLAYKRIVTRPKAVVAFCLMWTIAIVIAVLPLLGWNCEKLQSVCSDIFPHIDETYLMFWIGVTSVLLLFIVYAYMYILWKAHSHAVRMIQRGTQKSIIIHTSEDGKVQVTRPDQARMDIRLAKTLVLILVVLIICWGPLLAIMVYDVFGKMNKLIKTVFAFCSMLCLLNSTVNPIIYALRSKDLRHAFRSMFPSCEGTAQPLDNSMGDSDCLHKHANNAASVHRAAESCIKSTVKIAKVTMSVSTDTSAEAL

[5] = CB1 receptor Potency EC50, normalized to median EC50 of JWH-018, n ≥ 3 (JWH-030 n = 2)
[6] = read-out: hERG channel Potency IC50 (Gmax reduction), APC, 22 °C, best fit
[7] = normalized to median EC50 of JWH-018, n ≥ 3 (JWH-030 n = 2), read-out: CB1 receptor Potency EC50

Row | Structure (SMILES) | KV7.1/KCNE1 channel Efficacy (max reduction in Gmax) Gmin, marked * [2] | EC50 [4, 5] [nM] | CB1 receptor Efficacy Emax ([4]; n ≥ 3 (JWH-030 n = 2)) [% JWH-018] | hERG channel Efficacy (max reduction in Gmax) Gmin ([3]; best fit, APC, 22 °C) | IC50 [3, 6] [nM] | EC50 [4, 7] [nM] | also measured
1 | CC(C)(C)[C@H](NC(=O)Cc1cn(Cc2ccc(F)cc2)c2ccccc12)C(N)=O [ADB-FUBIATA] |  |  |  |  |  |  | hERG inhibition (in words) [1]: inhibit hERG
2 | CCCCCN1C(=O)/C(=N\NC(=O)c2ccccc2)c2ccccc21 [BZO-POXIZID] | 0.83 | 349 | 108 |  |  |  | hERG channel Efficacy (max reduction in Gmax) Gmin, marked * [3]: 0.79; effect on Gmax of hERG (in words) [3]: non-inhibitor
3 | N#CCCCCn1nc(C(=O)NCc2ccccc2)c2ccccc21 [Benzyl-4CN-BUTINACA] | 0.73 |  | 109 | 0.00 | 17300 | 408 | 
4 | Cc1ccc(S(=O)(=O)n2nc(C(=O)NC(C)(C)c3ccccc3)c3ccccc32)cc1 [Cumyl-TsINACA] | 1.07 |  | 106 |  |  |  | hERG channel Efficacy (max reduction in Gmax) Gmin, marked * [3]: 0.94; effect on Gmax of hERG (in words) [3]: non-inhibitor; EC50 ([4]; read-out: CB1 receptor Potency EC50): 166 nM
5 | CCCCCn1cc(C(=O)c2cccc3ccccc23)c2ccccc21 [JWH-018] | 1.01 | 35 | 100 | 0.57 |  |  | IC50 [3]: 17300 nM; EC50 ([4]; median CB1 EC50 value, median from 139 independent experiments run over many years): 35 nM; EC50 ([4]; variability of CB1 EC50 over time, range over 139 independent experiments): 13.7 to 51.9 nM
6 | CCCCCn1cc(C(=O)c2ccc(C)c3ccccc23)c2ccccc21 [JWH-122] | 0.87 |  | 105 | 0.73 | 9400 | 8.29 | 
7 | CCCCCn1cc(C(=O)c2ccc(CC)c3ccccc23)c2ccccc21 [JWH-210] |  |  | 110 |  |  | 10.1 | KV7.1/KCNE1 channel Efficacy (max reduction in Gmax) Gmin ([2]; best fit): 0; hERG channel Efficacy (max reduction in Gmax) Gmin, marked * [3]: 0.89
8 | C=CCCCn1nc(C(=O)N[C@H](C(=O)OC)C(C)(C)C)c2ccccc21 [MDMB-4en-PINACA] | 0.57 |  | 109 | 0.27 | 14600 | 16.7 | 
9 | CCCCn1nc(C(=O)NC(C(=O)OC)C(C)(C)C)c2cc(Br)ccc21 (stereo not shown) [MDMB-5'Br-BUTINACA] | 0.60 |  | 114 | 0.67 |  |  | effect on KV7.1/KCNE1 (in words) ([2]; APC): both reduced Gmax and shifted V50 towards more positive voltages; IC50 [3]: 6200 nM
10 | COC(=O)[C@@H](NC(=O)c1n[nH]c2ccc(Br)cc12)C(C)(C)C [MDMB-5'Br-INACA] | 0.74 |  | 110 | 0.57 | 25300 | 849 | 
11 | COC(=O)C(NC(=O)c1cn(CC2CCCCC2)c2ccccc12)C(C)(C)C (stereo not shown) [MDMB-CHMICA] | 0.78 | 3.07 | 107 | 0.55 |  |  | IC50 [3]: 3200 nM; effect on Gmax of hERG (in words) [3]: clear inhibiting Gmax effects on hERG
12 | COC(=O)[C@@H](NC(=O)c1nn(Cc2ccc(F)cc2)c2ccccc12)C(C)(C)C [MDMB-FUBINACA] | 0.59 |  | 103 | 0.25 | 10200 | 0.795 | CB1 EC50 (in words) [4]: sub-nanomolar
13 | COC(=O)C(NC(=O)c1nn(CC2CCCCC2)c2ccccc12)C(C)(C)C (stereo not shown) [MDMB-[…]] | 0.52 | 1.4 | 106 | 0.60 |  |  | ΔV50 of KV7.1/KCNE1 ([2]; 10 µM): +10.3 ± 1.6 mV; IC50 [3]: 12400 nM
14 | COC(=O)[C@@H](NC(=O)c1cn(CC2CCCCC2)c2ccccc12)C(C)C [MMB-CHMICA] |  |  | 109 | 0.75 | 2600 | 8.76 | KV7.1/KCNE1 channel Efficacy (max reduction in Gmax) Gmin ([2]; best fit): 0.83
15 | O=C(c1cccc2ccccc12)c1nn(CCCCCF)c2ccccc12 [THJ-2201] |  |  | 92.8 | 0.73 | 2040 | 45.6 | effect on KV7.1/KCNE1 (in words) ([2]; APC): well-defined concentration–response relationships for both effects; IC50 ([2]; APC, best fit, read-out: KV7.1/KCNE1 channel Potency IC50 (Gmax reduction)): 4700 nM; KV7.1/KCNE1 channel Efficacy (max reduction in Gmax) Gmin ([2]; best fit): 0.59
16 | CCCCCn1cc(C(=O)C2C(C)(C)C2(C)C)c2ccccc21 [UR-144] | 0.92 | 414 | 101 |  |  |  | hERG channel Efficacy (max reduction in Gmax) Gmin, marked * [3]: 0.94; effect on Gmax of hERG (in words) [3]: non-inhibitor
17 | CC1(C)C(C(=O)c2cn(CCCCCF)c3ccccc23)C1(C)C [XLR-11] | 0.87 | 260 | 105 | 0.54 |  |  | IC50 [3]: 20400 nM; effect on Gmax of hERG (in words) [3]: concentration-dependent inhibitory effects on Gmax
